Assay results taken from patent US20240124460A1, “METHODS AND COMPOSITIONS FOR TARGETED PROTEIN DEGRADATION” (Ranok Therapeutics (Hangzhou) Co. Ltd., priority 2020, published 2024).
Where two headings read alike, the source gives them in different places.

Experiments:
[1] = tested on: U-87 MG human glioblastoma; experiment: U87 MG CCK-8 proliferation assay; format: cell-based; settings: U-87 MG cells, read-out: U87MG CCK-8
Procedure, shortened: (§1)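 Cells grown per ATCC recommendations were treated with 3-fold serial compound dilutions from 20 μM to 1.02 nM. CCK-8 absorbance was converted to % inhibition against DMSO-treated cells, with cell-free medium containing DMSO as the blank.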

[2] = tested on: ERBB2; experiment: ERBB2 (HER2) flow cytometry protein degradation assay in BT-474 cells; format: cell-based, human; settings: DC50, BT-474 cells, 24 hr
Procedure: To analyze total ERBB2 expression by flow cytometry, cells were detached with trypsin, washed, counted and treated with 10 μl/10^6 cells PE-conjugated, anti-ERBB2 monoclonal antibody (R&D Systems, #FAB1129P) for 30 min at 25° C. in dark. Cells were then washed, resuspended in 200 μl 1% paraformaldehyde and analyzed by flow cytometry.
% Inhibition=100−(D−B)/(S−B)*100%. • S: Fluorescence intensity of cells with antibody • D: Fluorescence intensity of compound-treated cells with antibody • B: Fluorescence intensity of cells without antibody

[3] = tested on: MV-4-11 human acute myeloid leukemia; experiment: MV-4-11 CCK-8 proliferation assay; format: cell-based; settings: MV-4-11 cells, 72 hr
Procedure, shortened: as §1

[4] = molecular target: T1, HSP90α protein (Homo sapiens, UniProt P07900); experiment: HSP90α-binding FP (BODIPY) assay; settings: FP competition with BODIPY-labeled RNK04010
T1 construct: purchased BPS Bioscience #50298
Procedure, shortened: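 Fluorescence polarization measured competition with N-terminal human HSP90α, using either FITC-geldanamycin or BODIPY-labelled triazolone RNK04010 as tracer (5 nM final each). Compounds were tested in 2.5-fold dilutions from 20 μM to 5.2 nM, with incubation at 25 °C for 120 min (FITC) or 300 min (BODIPY).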

EC50 ([1]; Homo sapiens, U-87 MG, 72 h) | EC50 ([3]; Homo sapiens, MV4-11) | IC50 [4] | EC50 ([1]; 72 hr) | EC50 [3] | SMILES | ERBB2 degradation [2]
> 1 µM | 0.1 to 1 µM | – | – | – | CCOc1cc(N2CCC(C(=O)NCc3ccc(-n4c(O)nnc4-c4cc(C)c(O)cc4O)cc3)CC2)ccc1Nc1ncc2c(n1)N(C)c1ccccc1C(=O)N2C [Compound 027, N-(4-(3-(2,4-dihydroxy-5-methylphenyl)-5-hydroxy-4H-1,2,4-triazol-4-yl)benzyl)-1-(4-((5,11-dimethyl-6-oxo-6,11-dihydro-5H-benzo[e]pyrimido[5,4-b][1,4]diazepin-2-yl)amino)-3-ethoxyphenyl)piperidine-4-carboxamide] | C (DC50 > 1000 nM)
> 1 µM | 0.1 to 1 µM | 0.1 to 1 µM | – | – | CCOc1cc(N2CCC(C(=O)NCc3ccc(-n4c(O)nnc4-c4cc(CC)c(O)cc4O)cc3)CC2)ccc1Nc1ncc2c(n1)N(C)c1ccccc1C(=O)N2C [Compound 028, 1-(4-((5,11-dimethyl-6-oxo-6,11-dihydro-5H-benzo[e]pyrimido[5,4-b][1,4]diazepin-2-yl)amino)-3-ethoxyphenyl)-N-(4-(3-(5-ethyl-2,4-dihydroxyphenyl)-5-hydroxy-4H-1,2,4-triazol-4-yl)benzyl)piperidine-4-carboxamide] | B (DC50 = 100-1000 nM)
– | 0.1 to 1 µM | – | > 1 µM | – | CCCc1cc(-c2nnc(O)n2-c2ccc(CNC(=O)C3CCN(c4ccc(Nc5ncc6c(n5)N(C)c5ccccc5C(=O)N6C)c(OCC)c4)CC3)cc2)c(O)cc1O [Compound 029, N-(4-(3-(2,4-dihydroxy-5-propylphenyl)-5-hydroxy-4H-1,2,4-triazol-4-yl)benzyl)-1-(4-((5,11-dimethyl-6-oxo-6,11-dihydro-5H-benzo[e]pyrimido[5,4-b][1,4]diazepin-2-yl)amino)-3-ethoxyphenyl)piperidine-4-carboxamide] | B (DC50 = 100-1000 nM)
> 1 µM | 0.1 to 1 µM | – | – | – | CCOc1cc(N2CCC(C(=O)NCc3ccc(-n4c(O)nnc4-c4cc(C(C)C)c(O)cc4O)cc3C(F)(F)F)CC2)ccc1Nc1ncc2c(n1)N(C)c1ccccc1C(=O)N2C [Compound 030, N-(4-(3-(2,4-dihydroxy-5-isopropylphenyl)-5-hydroxy-4H-1,2,4-triazol-4-yl)-2-(trifluoromethyl)benzyl)-1-(4-((5,11-dimethyl-6-oxo-6,11-dihydro-5H-benzo[e]pyrimido[5,4-b][1,4]diazepin-2-yl)amino)-3-ethoxyphenyl)piperidine-4-carboxamide] | B (DC50 = 100-1000 nM)
> 1 µM | > 1 µM | > 1 µM | – | – | CCOc1cc(N2CCC(C(=O)NCc3ccc(-n4c(O)nnc4-c4cc(CC)c(O)cc4O)cc3C(F)(F)F)CC2)ccc1Nc1ncc2c(n1)N(C)c1ccccc1C(=O)N2C [Compound 031, 1-(4-((5,11-dimethyl-6-oxo-6,11-dihydro-5H-benzo[e]pyrimido[5,4-b][1,4]diazepin-2-yl)amino)-3-ethoxyphenyl)-N-(4-(3-(5-ethyl-2,4-dihydroxyphenyl)-5-hydroxy-4H-1,2,4-triazol-4-yl)-2-(trifluoromethyl)benzyl)piperidine-4-carboxamide] | C (DC50 > 1000 nM)
0.1 to 1 µM | < 0.1 µM | 0.1 to 1 µM | – | – | CCOc1cc(N2CCC(C(=O)NCCc3ccc(CN4CCC(Cc5ccc(-n6c(C(=O)NCC(F)(F)F)nnc6-c6cc(C(C)C)c(O)cc6O)cc5)CC4)cc3)CC2)ccc1Nc1ncc2c(n1)N(C)c1ccccc1C(=O)N2C [Compound 035, N-(4-((4-(4-(3-(2,4-dihydroxy-5-isopropylphenyl)-5-((2,2,2-trifluoroethyl)carbamoyl)-4H-1,2,4-triazol-4-yl)benzyl)piperidin-1-yl)methyl)phenethyl)-1-(4-((5,11-dimethyl-6-oxo-6,11-dihydro-5H-benzo[e]pyrimido[5,4-b][1,4]diazepin-2-yl)amino)-3-ethoxyphenyl)piperidine-4-carboxamide] | B (DC50 = 100-1000 nM)
0.1 to 1 µM | 0.1 to 1 µM | – | – | – | CCOc1cc(N2CCC(C(=O)NCc3ccc(-n4c(O)nnc4-c4cc(CC)c(O)cc4O)cc3F)CC2)ccc1Nc1ncc2c(n1)N(C)c1ccccc1C(=O)N2C [Compound 037, 1-(4-((5,11-dimethyl-6-oxo-6,11-dihydro-5H-benzo[e]pyrimido[5,4-b][1,4]diazepin-2-yl)amino)-3-ethoxyphenyl)-N-(4-(3-(5-ethyl-2,4-dihydroxyphenyl)-5-hydroxy-4H-1,2,4-triazol-4-yl)-2-fluorobenzyl)piperidine-4-carboxamide] | B (DC50 = 100-1000 nM)
> 1 µM | < 0.1 µM | 0.1 to 1 µM | – | – | CCOc1cc(N2CCC(C(=O)N3CCC(N4CCN(Cc5ccc(-n6c(O)nnc6-c6cc(C(C)C)c(O)cc6O)cc5C(F)(F)F)CC4)CC3)CC2)ccc1Nc1ncc2c(n1)N(C)c1ccccc1C(=O)N2C [Compound 038, 2-((4-(4-(4-(4-(4-(3-(2,4-dihydroxy-5-isopropylphenyl)-5-hydroxy-4H-1,2,4-triazol-4-yl)-2-(trifluoromethyl)benzyl)piperazin-1-yl)piperidine-1-carbonyl)piperidin-1-yl)-2-ethoxyphenyl)amino)-5,11-dimethyl-5,11-dihydro-6H-benzo[e]pyrimido[5,4-b][1,4]diazepin-6-one] | B (DC50 = 100-1000 nM)
– | – | – | 0.1 to 1 µM | 0.1 to 1 µM | CCCc1cc(-c2nnc(O)n2-c2ccc(CNC(=O)C3CCN(c4ccc(Nc5ncc6c(n5)N(C)c5ccccc5C(=O)N6C)c(OCC)c4)CC3)cc2)c(O)cc1O [Compound 039, N-(4-(3-(2,4-dihydroxy-5-propylphenyl)-5-hydroxy-4H-1,2,4-triazol-4-yl)benzyl)-1-(4-((5,11-dimethyl-6-oxo-6,11-dihydro-5H-benzo[e]pyrimido[5,4-b][1,4]diazepin-2-yl)amino)-3-ethoxyphenyl)piperidine-4-carboxamide] | B (DC50 = 100-1000 nM)
0.1 to 1 µM | < 0.1 µM | – | – | – | CCOc1cc(N2CCC(C(=O)NCc3ccc(CN4CCC(Cc5ccc(-n6c(C(=O)NC(C)C)nnc6-c6cc(C(C)C)c(O)cc6O)cc5)CC4)cc3)CC2)ccc1Nc1ncc2c(n1)N(C)c1ccccc1C(=O)N2C [Compound 056, N-(4-((4-(4-(3-(2,4-dihydroxy-5-isopropylphenyl)-5-(isopropylcarbamoyl)-4H-1,2,4-triazol-4-yl)benzyl)piperidin-1-yl)methyl)benzyl)-1-(4-((5,11-dimethyl-6-oxo-6,11-dihydro-5H-benzo[e]pyrimido[5,4-b][1,4]diazepin-2-yl)amino)-3-ethoxyphenyl)piperidine-4-carboxamide] | B (DC50 = 100-1000 nM)
0.1 to 1 µM | < 0.1 µM | 0.1 to 1 µM | – | – | CCOc1cc(N2CCC(C(=O)N3CCC(Cc4ccc(CN(C)Cc5ccc(-n6c(C(=O)NCC(F)(F)F)nnc6-c6cc(C(C)C)c(O)cc6O)cc5)cn4)CC3)CC2)ccc1Nc1ncc2c(n1)N(C)c1ccccc1C(=O)N2C [Compound 057, 5-(2,4-dihydroxy-5-isopropylphenyl)-4-(4-((((6-((1-(1-(4-((5,11-dimethyl-6-oxo-6,11-dihydro-5H-benzo[e]pyrimido[5,4-b][1,4]diazepin-2-yl)amino)-3-ethoxyphenyl)piperidine-4-carbonyl)piperidin-4-yl)methyl)pyridin-3-yl)methyl)(methyl)amino)methyl)phenyl)-N-(2,2,2-trifluoroethyl)-4H-1,2,4-triazole-3-carboxamide] | B (DC50 = 100-1000 nM)
